These results are taken from patent US20230023559A1, “ARYLMETHYLENE HETEROCYCLIC COMPOUNDS AS KV1.3 POTASSIUM SHAKER CHANNEL BLOCKERS” (D. E. Shaw Research, LLC, priority 2019, published 2023).

One test concerns the target T1, Kv1.3 potassium channel (Homo sapiens, UniProt P22001).
T1 construct: expressed in transfected cells
The test can be described thus: Kv1.3 potassium channel blocker activity, automated whole-cell patch clamp (Patchliner). Type of test: cell-based. The conditions noted are these: CHO-K1 cells stably expressing Kv1.3; whole cell current inhibition; read-out: Kv1.3_IC50. The procedure, abridged:
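Peak-current block was recorded on stable Kv1.3 CHO-K1 cells by automated patch clamp, stepping from a −90 mV holding potential to +40 mV for 100 ms at 0.1 Hz with 10 s breaks between trains. Online P/4 leak subtraction, 10 kHz sampling; compound exposure under 10 s per train.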

The target of a further test is hERG channel (Homo sapiens, UniProt Q12809). The test can be described thus: hERG electrophysiology, automated whole-cell patch clamp (Patchliner). (The hERG channel carries a current that helps repolarise heart muscle cells.)
Sequence of hERG channel (Q12809 whole entry): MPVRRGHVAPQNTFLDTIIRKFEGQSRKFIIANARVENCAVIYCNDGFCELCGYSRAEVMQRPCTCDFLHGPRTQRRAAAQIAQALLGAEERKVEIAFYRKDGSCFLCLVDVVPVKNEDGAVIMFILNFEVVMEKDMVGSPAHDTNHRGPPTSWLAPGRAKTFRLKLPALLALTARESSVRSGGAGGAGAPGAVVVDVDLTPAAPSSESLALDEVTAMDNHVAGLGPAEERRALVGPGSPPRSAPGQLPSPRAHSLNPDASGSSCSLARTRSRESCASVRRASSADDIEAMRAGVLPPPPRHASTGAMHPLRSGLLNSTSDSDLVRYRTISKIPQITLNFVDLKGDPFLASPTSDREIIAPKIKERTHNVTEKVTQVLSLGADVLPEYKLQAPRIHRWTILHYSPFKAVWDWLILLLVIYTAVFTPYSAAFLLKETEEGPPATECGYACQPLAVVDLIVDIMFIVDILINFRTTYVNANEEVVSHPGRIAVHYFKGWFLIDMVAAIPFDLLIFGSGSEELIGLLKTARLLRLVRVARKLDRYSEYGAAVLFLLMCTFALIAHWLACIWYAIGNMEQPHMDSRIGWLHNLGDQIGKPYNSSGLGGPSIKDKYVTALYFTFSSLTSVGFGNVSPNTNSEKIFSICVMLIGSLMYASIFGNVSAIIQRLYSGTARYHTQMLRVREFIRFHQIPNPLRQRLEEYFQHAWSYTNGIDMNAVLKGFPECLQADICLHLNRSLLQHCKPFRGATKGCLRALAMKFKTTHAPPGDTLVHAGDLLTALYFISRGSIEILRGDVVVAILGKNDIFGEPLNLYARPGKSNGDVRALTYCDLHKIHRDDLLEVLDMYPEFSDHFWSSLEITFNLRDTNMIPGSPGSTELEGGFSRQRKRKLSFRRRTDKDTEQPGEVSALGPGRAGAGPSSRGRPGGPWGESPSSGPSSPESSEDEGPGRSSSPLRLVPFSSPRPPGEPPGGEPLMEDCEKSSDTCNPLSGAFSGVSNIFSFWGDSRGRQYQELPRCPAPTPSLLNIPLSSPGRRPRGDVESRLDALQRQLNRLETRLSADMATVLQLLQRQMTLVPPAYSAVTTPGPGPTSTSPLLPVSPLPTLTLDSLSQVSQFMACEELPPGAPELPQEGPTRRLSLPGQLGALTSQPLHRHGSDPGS

T1 sequence (P22001 whole entry): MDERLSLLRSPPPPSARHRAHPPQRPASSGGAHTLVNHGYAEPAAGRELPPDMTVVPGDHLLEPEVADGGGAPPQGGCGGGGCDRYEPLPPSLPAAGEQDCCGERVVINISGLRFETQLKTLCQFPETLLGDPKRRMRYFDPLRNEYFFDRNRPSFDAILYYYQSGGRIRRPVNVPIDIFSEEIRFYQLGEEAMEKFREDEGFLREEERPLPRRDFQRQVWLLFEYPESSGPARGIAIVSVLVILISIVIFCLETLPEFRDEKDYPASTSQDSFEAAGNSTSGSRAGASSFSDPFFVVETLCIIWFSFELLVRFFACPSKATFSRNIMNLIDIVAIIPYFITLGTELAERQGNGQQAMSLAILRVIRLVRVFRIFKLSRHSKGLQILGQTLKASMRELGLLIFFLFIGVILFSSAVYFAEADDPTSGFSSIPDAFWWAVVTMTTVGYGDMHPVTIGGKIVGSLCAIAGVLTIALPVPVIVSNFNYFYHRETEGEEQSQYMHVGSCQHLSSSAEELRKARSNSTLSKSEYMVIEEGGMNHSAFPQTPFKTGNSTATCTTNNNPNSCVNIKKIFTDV
Description for hERG channel: CHO-K1 cells stably expressing hERG were grown in Ham's F-12 Medium with Glutamine containing 10% heat-inactivated FBS, 1% Penicillin/Streptomycin, Hygromycin (100 μg/ml) and G418 (100 μg/ml). Cells were grown in culture flasks at 37° C. in a 5% CO2-humidified incubator.
The cells were bathed in an extracellular solution containing 140 mM NaCl, 4 mM KCl, 2 mM CaCl2), 1 mM MgCl2, 5 mM Glucose, 10 mM HEPES; pH adjusted to 7.4 with NaOH; 295-305 mOsm. The internal solution contained 50 mM KCl, 10 mM NaCl, 60 mM KF, 20 mM EGTA, 10 mM HEPES; pH adjusted to 7.2 with KOH; 285 mOsm. All compounds were dissolved in DMSO at 30 mM. Compound stock solutions were freshly diluted with external solution to concentrations of 30 nM, 100 nM, 300 nM, 1 μM, 3 μM, 10 μM, 30 μM and 100 μM. The highest content of DMSO (0.3%) was present in 100 μM.
The voltage protocol (see Table B) was designed to simulate voltage changes during a cardiac action potential with a 300 ms depolarization to +20 mV (analogous to the plateau phase of the cardiac action potential), a repolarization for 300 ms to −50 mV (inducing a tail current) and a final step to the holding potential of −80 mV. The pulse frequency was 0.3 Hz. Control (compound-free) and compound pulse trains for each compound concentration applied contained 70 pulses.
Whole cell current recordings and compound application were enabled by means of an automated patch clamp platform Patchliner (Nanion). EPC 10 patch clamp amplifier (HEKA) along with Patchmaster software (HEKA Elektronik Dr. Schulze GmbH) was used for data acquisition. Data were sampled at 10 kHz without filtering. Increasing compound concentrations were applied consecutively to the same cell without washouts in between.
AUC and PEAK values were obtained with Patchmaster (HEKA Elektronik Dr. Schulze GmbH). To determine IC50 the last single pulse in the pulse train corresponding to a given compound concentration was used. Obtained AUC and PEAK values in the presence of compound were normalized to control values in the absence of compound. Using Origin (OridinLab), IC50 was derived from data fit to Hill equation: Icompound/Icontrol=(100−A)/(1+([compound]/IC50)nH)+A, where IC50 is the concentration at which current inhibition is half-maximal, [compound] is the applied compound concentration, A is the fraction of current that is not blocked and nH is the Hill coefficient.

One may read the IC50 as the midpoint of a concentration-inhibition curve. For `NC(=O)N1CCC([C@H](N)c2cc(Cl)c(Cl)cc2O)CC1` (single isomer, unassigned) [Compound 81], the IC50 on Kv1.3 potassium channel was less than 0.5 µM; at hERG channel, greater than 30 µM.

Regarding `N[C@@H](c1cc(Cl)c(Cl)cc1O)[C@@H]1CCNC1` (single isomer, unassigned; diastereoisomer 2) [Compound 33, 2-(amino(pyrrolidin-3-yl)methyl)-4,5-dichlorophenol Trifluoroacetic Acid Diastereoisomer 2], the IC50 is less than 10 µM on Kv1.3 potassium channel and greater than 30 µM against hERG channel.

Regarding `Cc1cc(O)c([C@H](N)C2CCN(C(=O)c3c[nH]c(=O)c(CO)c3)CC2)cc1Cl` [Compound 207, (R)-5-(4-(amino (5-chloro-2-hydroxy-4-methylphenyl)methyl)piperidine-1-carbonyl)-3-(hydroxymethyl) pyridin-2(1H)-one], the values for the IC50 on Kv1.3 potassium channel and against hERG channel were less than 0.5 µM and greater than 30 µM, respectively.

Take `NC(c1cc(Cl)c(Cl)cc1O)C1CCN(C(=O)CO)CC1` (centres unmarked) [Compound 47, 1-[4-[amino(4,5-dichloro-2-hydroxyphenyl)methyl]piperidin-1-yl]-2-hydroxyethan-1-one]: the IC50 at Kv1.3 potassium channel is less than 0.5 µM; on hERG channel it was greater than 30 µM.

On to `CC(=O)NC(c1c(O)ccc2ccccc12)C1CCNCC1` (centres unmarked) [Compound 36, N-[(2-hydroxynaphthalen-1-yl)(piperidin-4-yl)methyl]acetamide Trifluoroacetic Acid], for which the IC50 on Kv1.3 potassium channel is less than 10 µM; on hERG channel, greater than 30 µM.

As to `NC(c1cc(Cl)c(Cl)cc1O)C1CCN(S(=O)(=O)N2CCCC2)CC1` (centres unmarked) [Compound 45, 2-(amino(1-(pyrrolidin-1-ylsulfonyl)piperidin-4-yl)methyl)-4,5-dichlorophenol Trifluoroacetic Acid], the IC50 on Kv1.3 potassium channel was less than 10 µM; against hERG channel, less than 30 µM.

As to `CN(C)C(=O)N1CCC(C(N)c2cc(Cl)c(Cl)cc2O)CC1` (centres unmarked) [Compound 46, 4-(amino(4,5-dichloro-2-hydroxyphenyl)methyl)-N,N-dimethylpiperidine-1-carboxamide], the IC50 at Kv1.3 potassium channel is less than 10 µM; against hERG channel, less than 30 µM.

Consider `Cc1cc(O)c([C@H](N)C2CCN(C(=O)c3c[nH]c(=O)c(Cl)c3)CC2)cc1Cl` [Compound 241, 5-[4-[(R)-amino (5-chloro-2-hydroxy-4-methylphenyl)methyl]piperidine-1-carbonyl]-3-chloro-1H-pyridin-2-one trifluoro-acetic acid], for which the IC50 on Kv1.3 potassium channel was less than 0.5 µM; against hERG channel, greater than 30 µM.

Consider `N[C@@H](c1cc(Cl)c(Cl)cc1O)C1CCN(C(=O)C2(F)CNC2)CC1` [Compound 114, 2-[(R)-amino[1-(3-fluoroazetidine-3-carbonyl)piperidin-4-yl]methyl]-4,5-dichlorophenol], for which the IC50 is less than 0.5 µM on Kv1.3 potassium channel and greater than 30 µM at hERG channel.

`Cc1cc(O)c([C@H](N)C2CCN(C(=O)c3ccc4nncn4c3)CC2)cc1Cl` [Compound 242, (R)-[1,2,4]triazolo[4,3-a]pyridin-6-yl(4-(amino(5-chloro-2-hydroxy-4-methylphenyl)methyl)piperidin-1-yl)methanone trifluoroacetic acid]: the figures for the half-inhibitory concentration (IC50) on Kv1.3 potassium channel and against hERG channel were less than 0.5 µM and greater than 30 µM, respectively.

Consider `N[C@@H](c1cc(Cl)c(Cl)cc1O)C1CCN(C(=O)[C@H]2CNCCO2)CC1` [Compound 97, (4-((R)-amino(4,5-dichloro-2-hydroxyphenyl)methyl)piperidin-1-yl)((R)-morpholin-2-yl)methanone trifluoroacetic acid], for which the figures for the IC50 on Kv1.3 potassium channel and against hERG channel were less than 0.5 µM and greater than 30 µM, respectively.

For the compound `N[C@@H](c1cc(Cl)c(Cl)cc1O)C1CCN(C(=O)CO)CC1` [Compound 135, 1-[4-[(R)-amino(4,5-dichloro-2-hydroxyphenyl)methyl]piperidin-1-yl]-2-hydroxyethan-1-one trifluoroacetic acid], the IC50 on Kv1.3 potassium channel was less than 0.5 µM; at hERG channel, greater than 30 µM.

As for `Oc1ccc2ccccc2c1C(O)C1CCNCC1` (centres unmarked) [Compound 30, 1-(hydroxy(piperidin-4-yl)methyl)naphthalen-2-ol], the IC50 at Kv1.3 potassium channel is less than 10 µM; against hERG channel, greater than 30 µM.

With `N[C@@H](c1cc(Cl)c(Cl)cc1O)C1CCN(C(=O)N2CCNCC2)CC1` [Compound 141, 2-[(R)-amino[1-(piperazine-1-carbonyl)piperidin-4-yl]methyl]-4,5-dichlorophenol Trifluoroacetic Acid], the values for the IC50 on Kv1.3 potassium channel and against hERG channel were less than 0.5 µM and greater than 30 µM, respectively.

As for `Cc1cc(O)c([C@H](N)C2CCN(C(=O)[C@H](O)CO)CC2)c(F)c1Cl` [Compound 244, (2R)-1-[4-[(R)-amino(3-chloro-2-fluoro-6-hydroxy-4-methylphenyl)methyl]piperidin-1-yl]-2,3-dihydroxypropan-1-one], the figures for the IC50 at Kv1.3 potassium channel and at hERG channel were less than 0.5 µM and greater than 30 µM, respectively.

Regarding `N[C@@H](c1cc(Cl)c(Cl)cc1O)C1CCN(C(=O)C2CNC2)CC1` [Compound 83, 2-[(R)-amino[1-(azetidine-3-carbonyl)piperidin-4-yl]methyl]-4,5-dichlorophenol Trifluoroacetic Acid], the IC50 at Kv1.3 potassium channel was less than 0.5 µM; against hERG channel, greater than 30 µM.

On to `Cc1cc(O)c([C@H](N)C2CCN(C(=O)[C@H](O)CO)CC2)cc1C` [Compound 293, (2R)-1-[4-[(R)-amino(2-hydroxy-4,5-dimethylphenyl)methyl]piperidin-1-yl]-2,3-dihydroxypropan-1-one Trifluoroacetic Acid], for which the IC50 on Kv1.3 potassium channel was less than 0.5 µM; at hERG channel it was greater than 30 µM.

As for `CC(=O)NC(c1cc(Cl)c(Cl)cc1O)C1CCNCC1` (centres unmarked) [Compound 11, N-[(4,5-dichloro-2-hydroxyphenyl)(piperidin-4-yl)methyl]acetamide], the IC50 on Kv1.3 potassium channel was less than 10 µM; against hERG channel, greater than 30 µM.

As for `N[C@@H](c1cc(Cl)c(Cl)cc1O)C1CCN(C(=O)CCO)CC1` [Compound 133, 1-[4-[(R)-amino(4,5-dichloro-2-hydroxyphenyl)methyl]piperidin-1-yl]-3-hydroxypropan-1-one trifluoroacetic acid], the IC50 on Kv1.3 potassium channel was less than 0.5 µM; at hERG channel it was greater than 30 µM.

As to `N[C@@H](c1cc(Cl)c(Cl)cc1O)C1CCN(S(=O)(=O)C2CNC2)CC1` [Compound 107, 2-[(R)-amino[1-(azetidine-3-sulfonyl)piperidin-4-yl]methyl]-4,5-dichlorophenol], the IC50 on Kv1.3 potassium channel is less than 0.5 µM; on hERG channel, greater than 30 µM.

Turning to `C[C@@](O)(CO)C(=O)N1CCC([C@@H](N)c2cc(Cl)c(Cl)cc2O)CC1` (single isomer, unassigned; isomer 1) [Compound 217], the IC50 at Kv1.3 potassium channel was less than 10 µM; on hERG channel, greater than 30 µM.

As for `CN(C)CC(=O)N1CCC([C@@H](N)c2cc(Cl)c(Cl)cc2O)CC1` [Compound 89, (R)-1-(4-(amino(4,5-dichloro-2-hydroxyphenyl)methyl)piperidin-1-yl)-2-(dimethylamino)ethanone], the results for the IC50 at Kv1.3 potassium channel and at hERG channel were less than 0.5 µM and greater than 30 µM, respectively.

On to `N[C@@H](c1cc(Cl)c(Cl)cc1O)C1CCN(C(=O)c2cn[nH]c2)CC1` [Compound 131, 2-[(R)-amino[1-(1H-pyrazole-4-carbonyl)piperidin-4-yl]methyl]-4,5-dichlorophenol trifluoroacetic acid], for which the IC50 on Kv1.3 potassium channel is less than 0.5 µM; at hERG channel it was greater than 30 µM.

Take `C[C@@]1(C(=O)N2CCC([C@@H](N)c3cc(Cl)c(Cl)cc3O)CC2)CCCN1` [Compound 98, (4-((R)-amino(4,5-dichloro-2-hydroxyphenyl)methyl)piperidin-1-yl)((S)-2-methylpyrrolidin-2-yl)methanone]: the IC50 is less than 0.5 µM on Kv1.3 potassium channel and greater than 30 µM against hERG channel.

As to `CC(O)(CO)C(=O)N1CCC([C@@H](N)c2cc(Cl)c(Cl)cc2O)CC1` (stereo partly drawn) [Compound 201, 1-[4-[(R)-amino(4,5-dichloro-2-hydroxyphenyl)methyl]piperidin-1-yl]-2,3-dihydroxy-2-methylpropan-1-one Trifluoroacetic Acid], the figures for the IC50 at Kv1.3 potassium channel and against hERG channel were less than 10 µM and greater than 30 µM, respectively.

For `N[C@@H](c1cc(Cl)c(Cl)cc1O)C1CCN(C(=O)[C@H]2CNC(=O)CO2)CC1` (single isomer, unassigned; isomer 2) [Compound 276], the half-inhibitory concentration (IC50) at Kv1.3 potassium channel was less than 0.5 µM; against hERG channel it was greater than 30 µM.

`CC1CN(C(=O)[C@H](O)CO)CCC1[C@@H](N)c1cc(Cl)c(Cl)cc1O` (single isomer, unassigned; isomer 1) [Compound 331]: the figures for the IC50 on Kv1.3 potassium channel and against hERG channel were less than 0.5 µM and greater than 30 µM, respectively.

`N[C@@H](c1cc(Cl)c(Cl)cc1O)C1CCN(S(=O)(=O)CCO)CC1` [Compound 145, (R)-2-(amino(1-((2-hydroxyethyl)sulfonyl)piperidin-4-yl)methyl)-4,5-dichlorophenol Trifluoroacetic Acid]: the results for the IC50 at Kv1.3 potassium channel and against hERG channel were less than 0.5 µM and less than 30 µM, respectively.

Regarding `C[C@H](CO)C(=O)N1CCC([C@@H](N)c2cc(Cl)c(Cl)cc2O)CC1` [Compound 304, (2R)-1-[4-[(R)-amino(4,5-dichloro-2-hydroxyphenyl)methyl]piperidin-1-yl]-3-hydroxy-2-methylpropan-1-one], the IC50 on Kv1.3 potassium channel is less than 0.5 µM; against hERG channel it was greater than 30 µM.

As to `N[C@@H](c1cc(Cl)c(Cl)cc1O)C1CCN(C(=O)C2COCCO2)CC1` (stereo partly drawn) [Compound 137, 2-[(R)-amino[1-(1,4-dioxane-2-carbonyl)piperidin-4-yl]methyl]-4,5-dichlorophenol trifluoroacetic acid], the IC50 on Kv1.3 potassium channel is less than 0.5 µM; against hERG channel, less than 30 µM.

`Cc1cc(O)c([C@H](N)C2CCN(C(=O)C3CNC3)CC2)cc1Cl` [Compound 235, 2-[(R)-amino[1-(azetidine-3-carbonyl)piperidin-4-yl]methyl]-4-chloro-5-methylphenol trifluoroacetic acid]: the IC50 at Kv1.3 potassium channel is less than 0.5 µM; on hERG channel it was greater than 30 µM.
